Test system: non-small cell lung cancer patient specimens (adenocarcinomas and squamous cell carcinoma)
Experiment: International Adjuvant Lung Trial (IALT): cisplatin-based therapy vs observation, DFS/OS against IHC DNA repair biomarker Q-scores (Cox PH models)
Assay type: in vivo, human
Experimental: An immunohistochemical evaluation of DNA Repair Proteins was conducted on a large international patient specimen collection from the IALT trial (International Adjuvant Lung Trial). This clinical trial originally comprised approximately 1867 non-small cell lung cancer patient specimens (adenocarcinomas and squamous cell carcinoma) and was designed to test clinical parameters for patients receiving either cisplatin-based therapy or those considered observation. One problem with testing of biomarkers in general from clinical trials is that the patient population treatments are generally a mixture of several different treatments and combinations of such and so results may be confounded by interactions of various treatments. However, the IALT trial represents pristine treatment arms of cisplatin and observation and thus is relatively free of confounding affects due to treatment variation.
International Adjuvant Lung Cancer Trial (IALT) NSCLC FFPE patient specimens constructed on TMAs (13 total) were stained by IHC for DNA repair biomarkers: ATM, MSH2, ERCC1, p53, pMK2, PARP1, BRCA1, XPF. An average of 603 patients were analyzed for each biomarker. Tumor biomarker nuclear or cytoplasmic levels were determined using digital image user defined macros. Scores were generated based on weighted intensity and quantity of stained cells. In reference to accompanying diagrams in the Powerpoint files, please note that a wide dynamic range achieved during assay development and optimization in commercially available TMAs is translationally achieved when patients comprising this study population are stained, annotated for tumor region and scored by user-defined macros.
Previous studies have utilized standard pathologist-based scoring, thus we chose to optimize the IHC-based assessment of biomarker levels using digital pathology and weighted scoring. This endeavor is undertaken so that for a given population a continuum of scores (herein referred to as Q-scores) with a broad dynamic range may be generated by user defined macros. Here, scoring of individual tumor cells comprising each patient specimen is generated and then patients assembled into a population continuum of scores against which finer cut-points may tested and established rather than crude binning methods as employed in previous studies.
Q-score=10*(% of 10+cells)+9*(% of 9+cells)+8*(% of 8+cells)+7*(% of 7+cells) . . . 1*(% of 1+cells)
Cox PH models adjusted for relevant clinical and stratification variables were used in the univariate analyses of Disease-Free Survival (DFS) and Overall Survival (OS). Initial analyses were conducted using biomarker Q scores as continuous variables against clinical endpoint metrics.

[1] = ATM model, ADENOCARCINOMA, With adjustment variables
[2] = ATM model, ADENOCARCINOMA, With selected variables
[3] = ATM model, ADENOCARCINOMA, Without variables
[4] = ATM model, SQUAMOUS CELLS, With adjustment variables
[5] = ATM model, SQUAMOUS CELLS, With selected variables
[6] = ATM model, SQUAMOUS CELLS, Without variables
[7] = BRCA1 model, ADENOCARCINOMA, With adjustment variables
[8] = BRCA1 model, ADENOCARCINOMA, With selected variables
[9] = BRCA1 model, ADENOCARCINOMA, Without variables
[10] = BRCA1 model, SQUAMOUS CELLS, With adjustment variables
[11] = BRCA1 model, SQUAMOUS CELLS, With selected variables
[12] = BRCA1 model, SQUAMOUS CELLS, Without variables
[13] = Cox PH model with PMK2MC, with adjustment variables, histology heading not shown
[14] = Disease Free Survival, MEAN Q SCORE OF PMK2 CYTOPLASM DIVIDED BY NUCLEAR, Adenocarcinoma, With selected variables
[15] = Disease Free Survival, MEAN Q SCORE OF PMK2 CYTOPLASM DIVIDED BY NUCLEAR, Adenocarcinoma, Without variables
[16] = Disease Free Survival, MEAN Q SCORE PMK2 CYTOPLASM, Adenocarcinoma, With adjustment variables
[17] = Disease Free Survival, MEAN Q SCORE PMK2 CYTOPLASM, Adenocarcinoma, With selected variables
[18] = Disease Free Survival, MEAN Q SCORE PMK2 CYTOPLASM, Adenocarcinoma, Without variables
[19] = Disease Free Survival, MEAN Q SCORE PMK2 CYTOPLASM, Squamous Cells, With adjustment variables
[20] = Disease Free Survival, MEAN Q SCORE PMK2 CYTOPLASM, Squamous Cells, With selected variables
[21] = Disease Free Survival, MEAN Q SCORE PMK2 CYTOPLASM, Squamous Cells, Without variables
[22] = Disease Free Survival, MEAN Q SCORE PMK2 NUCLEAR, Adenocarcinoma, With adjustment variables
[23] = Disease Free Survival, MEAN Q SCORE PMK2 NUCLEAR, Adenocarcinoma, With selected variables
[24] = Disease Free Survival, MEAN Q SCORE PMK2 NUCLEAR, Adenocarcinoma, Without variables
[25] = Disease Free Survival, MEAN Q SCORE PMK2 NUCLEAR, Squamous Cells, With adjustment variables
[26] = Disease Free Survival, MEAN Q SCORE PMK2 NUCLEAR, Squamous Cells, With selected variables
[27] = Disease Free Survival, MEAN Q SCORE PMK2 NUCLEAR, Squamous Cells, Without variables
[28] = Disease Free Survival, MEAN Q SCORE SUM OF PMK2 CYTOPLASM & NUCLEAR, Adenocarcinoma, With adjustment variables
[29] = Disease Free Survival, MEAN Q SCORE SUM OF PMK2 CYTOPLASM & NUCLEAR, Adenocarcinoma, With selected variables
[30] = Disease Free Survival, MEAN Q SCORE SUM OF PMK2 CYTOPLASM & NUCLEAR, Adenocarcinoma, Without variables
[31] = Disease Free Survival, MEAN Q SCORE SUM OF PMK2 CYTOPLASM & NUCLEAR, Squamous Cells, With adjustment variables
[32] = Disease Free Survival, MEAN Q SCORE SUM OF PMK2 CYTOPLASM & NUCLEAR, Squamous Cells, With selected variables
[33] = Disease Free Survival, MEAN Q SCORE SUM OF PMK2 CYTOPLASM & NUCLEAR, Squamous Cells, Without variables
[34] = ERCC1 model, ADENOCARCINOMA, With adjustment variables

## N.N.[Cl][Pt][Cl] [cisplatin]
[1]
  HazardRatio, ATM_Treatment: 0.941
  HazardRatio, Treatment: 1.033
[2]
  HazardRatio, ATM_Treatment: 0.993
  HazardRatio, Treatment: 1.004
[3]
  HazardRatio, ATM_Treatment: 0.972
  HazardRatio, Treatment: 1.142
[4]
  HazardRatio, ATM_Treatment: 1.172
  HazardRatio, Treatment: 0.625
[5]
  HazardRatio, ATM_Treatment: 1.172
  HazardRatio, Treatment: 0.640
[6]
  HazardRatio, ATM_Treatment: 1.148
  HazardRatio, Treatment: 0.659
[7]
  HazardRatio, BRCA1_Treatment: 1.022
  HazardRatio, Treatment: 0.895
[8]
  HazardRatio, BRCA1_Treatment: 1.027
  HazardRatio, Treatment: 0.954
[9]
  HazardRatio, BRCA1_Treatment: 0.844
  HazardRatio, Treatment: 1.391
[10]
  HazardRatio, BRCA1_Treatment: 1.043
  HazardRatio, Treatment: 0.819
[11]
  HazardRatio, BRCA1_Treatment: 1.048
  HazardRatio, Treatment: 0.831
[12]
  HazardRatio, BRCA1_Treatment: 1.028
  HazardRatio, Treatment: 0.852
[13]
  HazardRatio, PMK2MC_Treatment interaction (Disease Free Survival): 1.244
  HazardRatio, Treatment (Disease Free Survival): 0.787
Disease Free Survival, MEAN Q SCORE OF PMK2 CYTOPLASM DIVIDED BY NUCLEAR, Adenocarcinoma, With adjustment variables
  HazardRatio, Treatment: 0.790
[14]
  HazardRatio, PMK2MCNp_Treatment: 31E22
  HazardRatio, Treatment: 0.827
[15]
  HazardRatio, PMK2MCNp_Treatment: 263.6
  HazardRatio, Treatment: 0.997
Disease Free Survival, MEAN Q SCORE OF PMK2 CYTOPLASM DIVIDED BY NUCLEAR, Squamous Cells, With adjustment variables
  HazardRatio, Treatment: 0.643
Disease Free Survival, MEAN Q SCORE OF PMK2 CYTOPLASM DIVIDED BY NUCLEAR, Squamous Cells, With selected variables
  HazardRatio, Treatment: 0.681
Disease Free Survival, MEAN Q SCORE OF PMK2 CYTOPLASM DIVIDED BY NUCLEAR, Squamous Cells, Without variables
  HazardRatio, Treatment: 0.755
[16]
  HazardRatio, PMK2MC_Treatment: 1.163
  HazardRatio, Treatment: 0.862
[17]
  HazardRatio, PMK2MC_Treatment: 1.096
  HazardRatio, Treatment: 0.874
[18]
  HazardRatio, PMK2MC_Treatment: 0.647
  HazardRatio, Treatment: 1.173
[19]
  HazardRatio, PMK2MC_Treatment: 1.206
  HazardRatio, Treatment: 0.804
[20]
  HazardRatio, PMK2MC_Treatment: 1.203
  HazardRatio, Treatment: 0.827
[21]
  HazardRatio, PMK2MC_Treatment: 1.134
  HazardRatio, Treatment: 0.846
[22]
  HazardRatio, PMK2MN_Treatment: 1.094
  HazardRatio, Treatment: 0.815
[23]
  HazardRatio, PMK2MN_Treatment: 1.087
  HazardRatio, Treatment: 0.816
[24]
  HazardRatio, PMK2MN_Treatment: 0.911
  HazardRatio, Treatment: 1.145
[25]
  HazardRatio, PMK2MN_Treatment: 1.126
  HazardRatio, Treatment: 0.758
[26]
  HazardRatio, PMK2MN_Treatment: 1.129
  HazardRatio, Treatment: 0.775
[27]
  HazardRatio, PMK2MN_Treatment: 1.107
  HazardRatio, Treatment: 0.789
[28]
  HazardRatio, PMK2MCNs_Treatment: 1.064
  HazardRatio, Treatment: 0.824
[29]
  HazardRatio, PMK2MCNs_Treatment: 1.056
  HazardRatio, Treatment: 0.829
[30]
  HazardRatio, PMK2MCNs_Treatment: 0.915
  HazardRatio, Treatment: 1.174
[31]
  HazardRatio, PMK2MCNs_Treatment: 1.078
  HazardRatio, Treatment: 0.772
[32]
  HazardRatio, PMK2MCNs_Treatment: 1.079
  HazardRatio, Treatment: 0.791
[33]
  HazardRatio, PMK2MCNs_Treatment: 1.062
  HazardRatio, Treatment: 0.808
[34]
  HazardRatio, ERCC1_Treatment: 1.170
  HazardRatio, Treatment: 0.689
ERCC1 model, ADENOCARCINOMA, With selected variables
  HazardRatio, ERCC1_Treatment: 1.151

From US20110217713A1 (On-Q-ity, priority 2010, published 2011)
